Measurements: US20250101001A1 (priority 2021, published 2025)

How the values were obtained:
[1] = type: in vivo; conditions: mice
Experimental: Head twitch response (HTR) experiments. C57BL/6J Mice (9-10 weeks old) are housed following an IACUC approved protocol. The mice are habituated in the test cage for at least 30 min, injected intraperitoneally with compound (injection volume 5 ml/kg), returned to the empty test cage, and filmed for 20 minutes. Each video is scored for the number of head-twitches by a trained observer blinded to treatment condition.

[2] = system: 5HT2A sensor; type: cell-based
[3] = system: 5HT2A sensor; type: cell-based; remark: listed apart in the source

| Compound | head-twitch response (HTR) [1] | activation of the 5HT2A sensor assay in agonist mode [2] | competition with 5-HT in the 5HT2A sensor assay in antagonist mode [3] |
| --- | --- | --- | --- |
| 5-MeO-DMT [Compound 5-MeO-DMT] | produces a robust, dose-dependent head-twitch response | activate the 5HT2A sensor assay in agonist mode | – |
| 6-F-DET [Compound 6-F-DET] | – | do not activate the 5HT2A sensor assay in agonist mode | can compete with 5HT binding to 5HT2A |
| 6-MeO-DMT [Compound 6-MeO-DMT] | does not produce a HTR | do not activate the 5HT2A sensor assay in agonist mode | compete off 5-HT |
| CN(C)CCc1c[nH]c2ccccc12 [DMT, N,N-dimethyltryptamine] | – | activate the 5HT2A sensor assay in agonist mode | – |
| O=C(c1ccc(F)cc1)C1CCN(CCn2c(=O)[nH]c3ccccc3c2=O)CC1 [Ketanserin] | – | do not activate the 5HT2A sensor assay in agonist mode | can compete with 5HT binding to 5HT2A |
| BOL148 | – | do not activate the 5HT2A sensor assay in agonist mode | can compete with 5HT binding to 5HT2A |
| L-MDMA | – | do not activate the 5HT2A sensor assay in agonist mode | – |
| R-MDMA | – | do not activate the 5HT2A sensor assay in agonist mode | – |
